Experimental data as given in ChEMBL document CHEMBL5705893, “Targeting the mitotic checkpoint for cancer therapy with NMS-P715, an inhibitor of MPS1 kinase” (Cancer Res, 2010).
Calls of active or inactive are those of the source. The rule behind the calls is not given here.

Key:
[1] = target: CDC7/DBF4 (Cell division cycle 7-related protein kinase/Activator of S phase kinase) (Homo sapiens, UniProt O00311); assay: Inhibition of recombinant CDC7/DBF4 (unknown origin); type: protein-complex assay
CDC7/DBF4 (Cell division cycle 7-related protein kinase/Activator of S phase kinase), sequence (Q9UBU7 whole entry): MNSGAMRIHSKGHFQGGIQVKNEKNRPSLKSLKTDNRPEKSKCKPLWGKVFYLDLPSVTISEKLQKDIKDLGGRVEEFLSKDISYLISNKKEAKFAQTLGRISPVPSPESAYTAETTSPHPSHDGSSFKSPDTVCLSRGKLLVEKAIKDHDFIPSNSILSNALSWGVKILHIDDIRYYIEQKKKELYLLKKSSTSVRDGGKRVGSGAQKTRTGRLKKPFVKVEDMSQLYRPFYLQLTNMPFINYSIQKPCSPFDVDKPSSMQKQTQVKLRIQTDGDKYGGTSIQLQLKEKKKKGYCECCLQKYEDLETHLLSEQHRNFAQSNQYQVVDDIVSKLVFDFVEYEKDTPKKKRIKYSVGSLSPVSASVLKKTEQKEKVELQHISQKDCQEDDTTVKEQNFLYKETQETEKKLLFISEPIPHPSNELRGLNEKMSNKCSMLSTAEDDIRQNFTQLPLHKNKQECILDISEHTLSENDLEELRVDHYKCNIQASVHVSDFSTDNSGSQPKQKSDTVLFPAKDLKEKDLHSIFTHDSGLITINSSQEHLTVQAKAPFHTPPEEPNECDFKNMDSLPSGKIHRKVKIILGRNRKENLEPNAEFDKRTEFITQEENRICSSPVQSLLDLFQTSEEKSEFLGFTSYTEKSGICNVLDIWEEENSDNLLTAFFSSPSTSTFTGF
CDC7/DBF4 (Cell division cycle 7-related protein kinase/Activator of S phase kinase), sequence (O00311 whole entry): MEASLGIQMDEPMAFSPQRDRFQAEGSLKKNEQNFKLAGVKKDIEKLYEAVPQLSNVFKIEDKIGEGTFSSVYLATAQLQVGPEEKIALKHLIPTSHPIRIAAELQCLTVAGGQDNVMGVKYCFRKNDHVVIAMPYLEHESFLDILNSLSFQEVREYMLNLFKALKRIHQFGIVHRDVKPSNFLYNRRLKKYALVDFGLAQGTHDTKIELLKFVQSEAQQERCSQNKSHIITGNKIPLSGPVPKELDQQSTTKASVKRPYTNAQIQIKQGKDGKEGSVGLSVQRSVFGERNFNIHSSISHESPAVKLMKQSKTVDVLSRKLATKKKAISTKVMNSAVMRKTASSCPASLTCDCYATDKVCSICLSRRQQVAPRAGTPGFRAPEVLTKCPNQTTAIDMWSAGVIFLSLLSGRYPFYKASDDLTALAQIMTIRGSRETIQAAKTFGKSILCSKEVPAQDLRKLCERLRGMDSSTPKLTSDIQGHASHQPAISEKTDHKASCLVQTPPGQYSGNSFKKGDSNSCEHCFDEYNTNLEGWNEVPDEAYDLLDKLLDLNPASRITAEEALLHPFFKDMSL

[2] = target: Serine/threonine-protein kinase Chk1 (Homo sapiens, UniProt O14757); assay: Inhibition of recombinant CHK1 (unknown origin)
Focal adhesion kinase 1 = Focal adhesion kinase 1 (Homo sapiens, UniProt Q05397); assay: Inhibition of recombinant FAK (unknown origin)
Focal adhesion kinase 1, sequence (Q05397 whole entry): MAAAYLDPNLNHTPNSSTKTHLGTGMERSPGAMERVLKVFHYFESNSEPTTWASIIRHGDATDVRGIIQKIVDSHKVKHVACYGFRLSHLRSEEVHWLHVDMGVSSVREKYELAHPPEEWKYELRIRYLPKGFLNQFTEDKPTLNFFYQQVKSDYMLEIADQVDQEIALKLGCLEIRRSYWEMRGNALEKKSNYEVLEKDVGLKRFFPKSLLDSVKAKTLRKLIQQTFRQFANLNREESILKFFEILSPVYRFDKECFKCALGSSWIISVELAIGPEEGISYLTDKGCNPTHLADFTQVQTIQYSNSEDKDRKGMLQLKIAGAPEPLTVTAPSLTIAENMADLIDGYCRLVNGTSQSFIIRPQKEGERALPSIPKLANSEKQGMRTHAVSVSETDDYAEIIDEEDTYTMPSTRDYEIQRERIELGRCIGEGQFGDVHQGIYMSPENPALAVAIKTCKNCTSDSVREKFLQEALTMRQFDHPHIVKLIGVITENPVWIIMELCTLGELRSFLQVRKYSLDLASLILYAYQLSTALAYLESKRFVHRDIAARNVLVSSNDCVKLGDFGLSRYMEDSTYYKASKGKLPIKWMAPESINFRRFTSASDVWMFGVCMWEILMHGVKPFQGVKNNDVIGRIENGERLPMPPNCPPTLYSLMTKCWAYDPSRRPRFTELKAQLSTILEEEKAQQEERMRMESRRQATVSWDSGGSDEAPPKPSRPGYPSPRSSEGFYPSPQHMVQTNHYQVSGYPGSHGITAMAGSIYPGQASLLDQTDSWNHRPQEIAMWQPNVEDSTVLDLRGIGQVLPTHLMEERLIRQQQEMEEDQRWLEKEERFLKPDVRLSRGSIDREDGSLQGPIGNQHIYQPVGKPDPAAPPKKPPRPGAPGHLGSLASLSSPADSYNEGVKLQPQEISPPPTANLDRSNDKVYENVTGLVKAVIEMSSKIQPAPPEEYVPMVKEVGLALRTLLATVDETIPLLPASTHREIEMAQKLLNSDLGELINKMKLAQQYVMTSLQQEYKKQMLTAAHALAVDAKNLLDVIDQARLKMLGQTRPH

[3] = target: Glycogen synthase kinase-3 beta (Homo sapiens, UniProt P49841); assay: Inhibition of recombinant GSK3beta (unknown origin)
Glycogen synthase kinase-3 beta, sequence (P49841 whole entry): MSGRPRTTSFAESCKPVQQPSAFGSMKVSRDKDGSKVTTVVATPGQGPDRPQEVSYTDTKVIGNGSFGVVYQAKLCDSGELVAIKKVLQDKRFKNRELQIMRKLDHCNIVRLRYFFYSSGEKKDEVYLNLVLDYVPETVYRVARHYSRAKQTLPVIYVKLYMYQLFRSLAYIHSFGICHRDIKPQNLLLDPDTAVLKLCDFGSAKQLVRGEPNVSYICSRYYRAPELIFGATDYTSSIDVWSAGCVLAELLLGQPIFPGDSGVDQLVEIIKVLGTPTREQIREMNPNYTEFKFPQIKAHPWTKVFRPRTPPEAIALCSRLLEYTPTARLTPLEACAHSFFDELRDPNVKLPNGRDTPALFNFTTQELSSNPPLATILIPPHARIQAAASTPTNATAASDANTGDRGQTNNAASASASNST

[4] = target: Tyrosine-protein kinase JAK3 (Homo sapiens, UniProt P52333); assay: Inhibition of recombinant JAK3 (unknown origin)
Tyrosine-protein kinase JAK3, sequence (P52333 whole entry): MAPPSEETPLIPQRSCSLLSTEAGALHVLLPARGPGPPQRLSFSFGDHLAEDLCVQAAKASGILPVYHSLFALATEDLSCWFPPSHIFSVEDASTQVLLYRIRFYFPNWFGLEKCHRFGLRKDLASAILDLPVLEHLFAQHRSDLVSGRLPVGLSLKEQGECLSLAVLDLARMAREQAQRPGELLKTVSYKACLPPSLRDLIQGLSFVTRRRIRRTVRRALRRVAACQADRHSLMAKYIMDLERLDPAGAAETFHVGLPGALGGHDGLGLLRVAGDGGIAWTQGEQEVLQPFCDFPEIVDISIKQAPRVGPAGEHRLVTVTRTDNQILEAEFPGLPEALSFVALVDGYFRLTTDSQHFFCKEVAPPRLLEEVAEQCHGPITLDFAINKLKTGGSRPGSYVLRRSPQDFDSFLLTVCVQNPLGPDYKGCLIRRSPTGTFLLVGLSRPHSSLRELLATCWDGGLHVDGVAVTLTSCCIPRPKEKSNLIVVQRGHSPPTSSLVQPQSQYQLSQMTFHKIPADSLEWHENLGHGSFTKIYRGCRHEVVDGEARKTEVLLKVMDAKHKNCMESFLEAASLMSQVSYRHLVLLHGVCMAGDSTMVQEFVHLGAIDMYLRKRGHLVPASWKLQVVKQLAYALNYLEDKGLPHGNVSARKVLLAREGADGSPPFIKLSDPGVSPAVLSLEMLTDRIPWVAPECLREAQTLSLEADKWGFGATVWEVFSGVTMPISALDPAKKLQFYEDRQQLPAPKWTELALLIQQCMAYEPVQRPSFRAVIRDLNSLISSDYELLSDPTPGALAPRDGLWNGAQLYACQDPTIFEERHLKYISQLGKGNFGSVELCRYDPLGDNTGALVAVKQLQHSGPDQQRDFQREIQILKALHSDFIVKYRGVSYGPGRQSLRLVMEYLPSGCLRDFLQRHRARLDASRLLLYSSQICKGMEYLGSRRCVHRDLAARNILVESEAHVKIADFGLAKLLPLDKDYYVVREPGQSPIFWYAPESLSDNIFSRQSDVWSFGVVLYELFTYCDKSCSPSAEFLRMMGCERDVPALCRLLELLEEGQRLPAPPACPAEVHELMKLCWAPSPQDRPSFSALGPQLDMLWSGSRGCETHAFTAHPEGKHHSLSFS

[5] = target: Serine/threonine-protein kinase PLK2 (Homo sapiens, UniProt Q9NYY3); assay: Inhibition of recombinant PLK2 (unknown origin)
[6] = target: High affinity nerve growth factor receptor (Homo sapiens, UniProt P04629); assay: Inhibition of recombinant TRKA (unknown origin)
High affinity nerve growth factor receptor, sequence (P04629 whole entry): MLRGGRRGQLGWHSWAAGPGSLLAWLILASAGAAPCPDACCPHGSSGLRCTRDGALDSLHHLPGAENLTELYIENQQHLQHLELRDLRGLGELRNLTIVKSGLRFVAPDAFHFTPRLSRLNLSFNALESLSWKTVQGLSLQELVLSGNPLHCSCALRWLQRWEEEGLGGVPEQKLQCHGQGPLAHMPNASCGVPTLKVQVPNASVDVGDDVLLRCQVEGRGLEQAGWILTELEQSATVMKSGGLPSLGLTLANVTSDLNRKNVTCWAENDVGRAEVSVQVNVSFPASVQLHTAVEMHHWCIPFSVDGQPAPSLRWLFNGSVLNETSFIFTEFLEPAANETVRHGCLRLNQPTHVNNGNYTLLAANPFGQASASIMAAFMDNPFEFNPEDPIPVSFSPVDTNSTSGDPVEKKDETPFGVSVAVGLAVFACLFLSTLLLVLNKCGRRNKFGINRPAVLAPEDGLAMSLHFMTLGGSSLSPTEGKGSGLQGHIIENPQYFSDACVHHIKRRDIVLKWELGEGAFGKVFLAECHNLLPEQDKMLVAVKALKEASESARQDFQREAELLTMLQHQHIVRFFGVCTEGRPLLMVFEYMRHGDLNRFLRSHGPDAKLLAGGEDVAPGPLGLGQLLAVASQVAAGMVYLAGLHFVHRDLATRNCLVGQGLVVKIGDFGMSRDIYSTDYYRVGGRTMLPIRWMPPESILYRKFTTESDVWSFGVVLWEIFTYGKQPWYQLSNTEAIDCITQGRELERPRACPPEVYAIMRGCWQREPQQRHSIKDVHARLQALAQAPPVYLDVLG

SF-268 = assay: Antiproliferative activity against human SF-268 cells assessed as inhibition of cell growth incubated for 72 hrs by celltiter-glo assay; type: functional, cell-based; conditions: SF-268, 72 h
BT-474 = assay: Antiproliferative activity against human BT-474 cells assessed as inhibition of cell growth incubated for 72 hrs by celltiter-glo assay; type: functional, cell-based; conditions: BT-474, 72 h
T47D = assay: Antiproliferative activity against human T47D cells assessed as inhibition of cell growth incubated for 72 hrs by celltiter-glo assay; type: functional, cell-based
HCT-15 = assay: Antiproliferative activity against human HCT-15 cells assessed as inhibition of cell growth incubated for 72 hrs by celltiter-glo assay; type: functional, cell-based; conditions: HCT-15, 72 h
COLO 205 = assay: Antiproliferative activity against human COLO 205 cells assessed as inhibition of cell growth incubated for 72 hrs by celltiter-glo assay; type: functional, cell-based; conditions: COLO 205, 72 h
SW480 = assay: Antiproliferative activity against human SW480 cells assessed as inhibition of cell growth incubated for 72 hrs by celltiter-glo assay; type: functional, cell-based; conditions: SW480, 72 h
[7] = Antiproliferative activity against human CL-11 cells assessed as inhibition of cell growth incubated for 72 hrs by celltiter-glo assay; type: functional, cell-based; conditions: CL-11, 72 h
SW-403 = assay: Antiproliferative activity against human SW403 cells assessed as inhibition of cell growth incubated for 72 hrs by celltiter-glo assay; type: functional, cell-based; conditions: SW-403, 72 h
SW1417 = assay: Antiproliferative activity against human SW1417 cells assessed as inhibition of cell growth incubated for 72 hrs by celltiter-glo assay; type: functional, cell-based; conditions: SW1417, 72 h
SNB-19 = assay: Antiproliferative activity against human SNB-19 cells assessed as inhibition of cell growth incubated for 72 hrs by celltiter-glo assay; type: functional, cell-based; conditions: SNB-19, 72 h
NCI-H23 = assay: Antiproliferative activity against human NCI-H23 cells assessed as inhibition of cell growth incubated for 72 hrs by celltiter-glo assay; type: functional, cell-based; conditions: NCI-H23, 72 h
NCI-H226 = assay: Antiproliferative activity against human NCI-H226 cells assessed as inhibition of cell growth incubated for 72 hrs by celltiter-glo assay; type: functional, cell-based; conditions: NCI-H226, 72 h
SK-LU-1 = assay: Antiproliferative activity against human SK-LU-1 cells assessed as inhibition of cell growth incubated for 72 hrs by celltiter-glo assay; type: functional, cell-based; conditions: SK-LU-1, 72 h
HOP-62 = assay: Antiproliferative activity against human HOP-62 cells assessed as inhibition of cell growth incubated for 72 hrs by celltiter-glo assay; type: functional, cell-based; conditions: HOP-62, 72 h
SU-DHL10 = assay: Antiproliferative activity against human SU-DHL-10 cells assessed as inhibition of cell growth incubated for 72 hrs by celltiter-glo assay; type: functional, cell-based; conditions: SU-DHL10, 72 h
SK-MEL-5 = assay: Antiproliferative activity against human SK-MEL-5 cells assessed as inhibition of cell growth incubated for 72 hrs by celltiter-glo assay; type: functional, cell-based; conditions: SK-MEL-5, 72 h
OPM-2 = assay: Antiproliferative activity against human OPM-2 cells assessed as inhibition of cell growth incubated for 72 hrs by celltiter-glo assay; type: functional, cell-based; conditions: OPM-2, 72 h
[8] = Antiproliferative activity against human GM13705 cells assessed as inhibition of cell growth incubated for 72 hrs by celltiter-glo assay; type: functional, cell-based; conditions: GM13705, 72 h
OVCAR-3 = assay: Antiproliferative activity against human OVCAR-3 cells assessed as inhibition of cell growth incubated for 72 hrs by celltiter-glo assay; type: functional, cell-based; conditions: OVCAR-3, 72 h
BXPC-3 = assay: Antiproliferative activity against human BXPC-3 cells assessed as inhibition of cell growth incubated for 72 hrs by celltiter-glo assay; type: functional, cell-based; conditions: BXPC-3, 72 h
CAKI-1 = assay: Antiproliferative activity against human CAKI-1 cells assessed as inhibition of cell growth incubated for 72 hrs by celltiter-glo assay; type: functional, cell-based; conditions: CAKI-1, 72 h
786-0 = assay: Antiproliferative activity against human 786-0 cells assessed as inhibition of cell growth incubated for 72 hrs by celltiter-glo assay; type: functional, cell-based; conditions: 786-0, 72 h
[9] = Antiproliferative activity against human NPA cells assessed as inhibition of cell growth incubated for 72 hrs by celltiter-glo assay; type: functional, cell-based
U2OS [10] = assay: Induction of mitotic arrest in human U2OS cells expressing YFP-alpha-tubulin assessed as effect on bipolar spindle formation at 1 micromol/L by time-lapse microscopic analysis; type: functional, cell-based; conditions: dose 1.0 µmol/L
HeLa [11] = assay: Induction of mitotic arrest in human nocodazole-arrested HeLa cells assessed as delocalization of MAD1 in presence of MG132; type: functional, cell-based
HeLa [12] = assay: Induction of mitotic arrest in human nocodazole-arrested HeLa cells assessed as delocalization of MAD1 at 1 micromol/L in presence of MG132; type: functional, cell-based; conditions: dose 1.0 µmol/L
A2780 [13] = assay: Induction of apoptosis in human A2780 cells assessed as upregulation of histone H3 dephosphorylation at 0.2 to 1 micromol/L incubated for 2 to 72 hrs by Western blot analysis; type: functional, cell-based; conditions: dose 0.2-1 µmol/L, time 2-72 hrs
A2780 [14] = assay: Induction of apoptosis in human A2780 cells assessed as PARP clevage at 0.2 to 1 micromol/L incubated for 2 to 72 hrs by Western blot analysis; type: functional, cell-based; conditions: dose 0.2-1 µmol/L, time 2-72 hrs
U2OS [15] = assay: Cytotoxicity against human U2OS cells expressing YFP-alpha tubulin assessed as cell death incubated for 86 hrs; type: functional, cell-based
U2OS [16] = assay: Inhibition of colony formation in human U2OS cells assessed as decrease in colony number incubated for 22 hrs followed by compound washout and measured after 8 days by crystal violet staining based assay; type: functional, cell-based
BJ = assay: Inhibition of colony formation in human BJ cells assessed as decrease in colony number at 0.5 to 3 uM incubated for 72 hrs followed by compound washout and measured after 18 days by crystal violet staining based assay; type: functional, cell-based; conditions: dose 0.5-3 µM
[17] = Clearance in Athymic nu-nu mouse at 10 mg/kg, iv measured upto 24 hrs by LC-MS/MS analysis; type: ADME, organism-based; conditions: in vivo
[18] = Cmax in Athymic nu-nu mouse at 10 mg/kg, iv measured upto 24 hrs by LC-MS/MS analysis; type: ADME, organism-based; conditions: in vivo
[19] = AUC in Athymic nu-nu mouse at 10 mg/kg, po measured upto 24 hrs by LC-MS/MS analysis; type: ADME, organism-based; conditions: in vivo

Structure (SMILES): CCc1cccc(CC)c1NC(=O)c1nn(C)c2c1CCc1cnc(Nc3ccc(C(=O)NC4CCN(C)CC4)cc3OC(F)(F)F)nc1-2
- IC50 [1]: > 10000 nM
- IC50 [2]: > 10000 nM
- IC50 (Focal adhesion kinase 1): > 10000 nM
- IC50 [3]: > 10000 nM
- IC50 [4]: > 10000 nM
- IC50 [5]: > 10000 nM
- IC50 [6]: > 10000 nM
- IC50 (SF-268): 1370 nM
- IC50 (BT-474): 1160 nM
- IC50 (T47D): 2860 nM
- IC50 (HCT-15): 232 nM
- IC50 (COLO 205): 592 nM
- IC50 (SW480): 1300 nM
- IC50 [7]: 1320 nM
- IC50 (SW-403): 1570 nM
- IC50 (SW1417): 8840 nM
- IC50 (SNB-19): 6930 nM
- IC50 (NCI-H23): 1220 nM
- IC50 (NCI-H226): 2010 nM
- IC50 (SK-LU-1): 5000 nM
- IC50 (HOP-62): 7770 nM
- IC50 (SU-DHL10): 1580 nM
- IC50 (SK-MEL-5): 4490 nM
- IC50 (OPM-2): 2310 nM
- IC50 [8]: 10000 nM
- IC50 (OVCAR-3): 6200 nM
- IC50 (BXPC-3): 2180 nM
- IC50 (CAKI-1): 2000 nM
- IC50 (786-0): 917 nM
- IC50 [9]: 2640 nM
- Activity (U2OS [10]): Active
- Activity (HeLa [11]): Active
- Activity (HeLa [12]): Active
- Activity (A2780 [13]): Active
- Activity (A2780 [14]): Active
- Activity (U2OS [15]): Active
- Activity (U2OS [16]): Active
- Activity (BJ): Active
- clearance [17]: 10 mL/min/kg
- Cmax [18]: 4.79 µM
- AUC at 24 h [19]: 8.66 µM·h
